Reference: publication PMC10051798, “Thiosemicarbazide Derivatives Targeting Human TopoIIα and IDO-1 as Small-Molecule Drug Candidates for Breast Cancer Treatment” (International Journal of Molecular Sciences, 2023)

Key:
Type in all cases: cell-based, human
MCF-7 cells [1] = test: Annexin V/propidium iodide flow cytometry (apoptosis), MCF-7; settings: MCF-7, 24 h, concentration not given
Text: (§1) Flow cytometry analyses for apoptosis induction by the compounds 1–3 and etoposide wereperformedusing an FITC Annexin V Apoptosis Detection Kit II (BD Pharmingen, San Diego, CA, USA). The rationale of the assay is based on the externalization of phosphatidylserine on the surface of apoptotic cells. In early and late apoptotic cells, the phosphatidylserine translocates into the outer layer of the membrane, which allows annexin V-FITC to attach. Propidium iodide (PI) is, in turn, a fluorescent dye that penetrates into the late apoptotic and necrotic cells with impaired cell membrane integrity. Therefore, using annexin V and PI, it is possible to distinguish four groups of cells: living cells, early apoptotic cells, late apoptotic cells and necrotic cells. MCF-7 and MDA-MB-231 cells were incubated with 10 and 20 µg/mL of compounds 1–3 and etoposide (reference drug) for 24 h. After incubation, the cells were dyed with FITC-labeled annexin V and PI. The analysis was performed on a BD FACS Canto II flow cytometer using FACSDiva software (version 6.1.3, BD Biosciences Systems, San Diego, CA, USA). The equipment was calibrated with BD Cytometer Setup and Tracking Beads (BDBiosciences, San Diego, CA, USA).

MCF-7 cells [2] = test: Cell cycle analysis (PI flow cytometry), MCF-7; settings: 24 h
Description: Cell cycle analyses of MCF-7 and MDA-MB-231 cells treated with compounds 1–3 and etoposide for 24 h were performed using a FACSCanto II flow cytometer (BD Bioscences Systems, San Diego, CA, USA). After incubation, breast cancer cells were trypsinized and fixed with cold ethanol (70%) and stored overnight at −20 °C. After removing ethanol, the cells were washed three times with PBS, treated with 50 μg/mL of DNase-free RNase A Solution (Promega, Madison, WI, USA) and stained with 100 μg/mL of PI. The results of measurements were analyzed using FCS Express 7 software (De Novo Software, Pasadena, CA, USA).

[3] = tested on: MRP1/2 in MDA-MB-231 cells; test: MDR transporter activity assay, MRP in MDA-MB-231; settings: 24 h
Description: An MDR Assay kit (Abcam, Cambridge, UK) was used following the manufacturer’s instructions. MCF-7 and MDA-MB-231 cells were incubated with compounds 1–3 (10 μg/mL and 20 μg/mL). After 24 h of incubation, the test cells were washed twice with 5 mL of PBS by centrifugation at 1200 rpm for 10 min. The supernatants were discarded and the cells were counted using a Scepter 3.0 handheld automated cell counter (Milipore, Burlington, MA, USA). Then, each of the tested samples was divided into three parts and analyzed. Tomeasure the activity of MDR1, MRP1 and BCRP (tubes 1–12), 5 μL of verapamil (MDR1 inhibitor) was added into tubes 1–3, 5 μL of MK-571 (MRP1 inhibitor) was added into tubes 4–6, 5 μL of noviobiocin (BCRP inhibitor) was added into tubes 7–9 and 125 μL DMEM with 1 μL of DMSO was added into tubes 10–12. Then, the samples were incubated at 37 °C for five minutes. After this time, 125 μL of Efflux Green Detection Reagent was added into tubes 1–12 and the samples were incubated for 30 min at 37 °C. After 25 min of incubation, 5 μL of PI was added to each tube. Thereafter, the samples were centrifuged for 10 min at 1200 rpm. The supernatants were discarded and the cells were resuspended in 500 μL of PBS and run on the flow cytometer immediately. Measurements were conducted on a BD FACSCanto II flow cytometer using FACSDiva software (version 6.1.3, BD Biosciences, San Diego, CA, USA). […] The calculations followed these formulas:MAFMDR1= 100 × (FMDR1 − F0)/FMDR1 MAFMRP= 100 × (FMRP − F0)/FMRP MAFBCRP= 100 × (FBCRP − F0)/FBCRP
• FMDR—MFI with MDR1 inhibitor (verapamil) • FMRP—MFI with MRP inhibitor (MK-571) • FBCRP—MFI with BCRP inhibitor (novobiocin) • F0—MFI without inhibitor
The theoretical range of the MAF values is between 0 and 100.

MDA-MB-231 cells = test: Annexin V/propidium iodide flow cytometry (apoptosis), MDA-MB-231; settings: MDA-MB-231, 24 h, concentration not given
Text: as §1

SMILES | apoptotic cells (MCF-7 cells [1]) [%] | cells in G2/M phase (MCF-7 cells [2]; MCF-7, 10 µg/mL) [%] | cells in S phase (MCF-7 cells [2]; MCF-7, 20 µg/mL) [%] | MAF MRP ([3]; MDA-MB-231, 20 µg/mL) | cells in G2/M phase (MCF-7 cells [2]; MCF-7, 20 µg/mL) [%] | MAF MRP ([3]; MDA-MB-231, 10 µg/mL) | apoptotic cells (MDA-MB-231 cells) [%]
O=C(NNC(=S)Nc1ccc(/N=N/c2ccccc2)cc1)c1ccccc1[N+](=O)[O-] [Compound 3] | ~68 | 35.3 | 49.1 | < 20 |  |  | 
O=C(Cc1cccc2ccccc12)NNC(=S)Nc1ccc(/N=N/c2ccccc2)cc1 [Compound 2] |  |  | 40.7 | 1.8 | 32.2 | 7.0 | 70
